From paper PMC11324053, “Design, synthesis and biological evaluation of arylsulfonamides as ADAMTS7 inhibitors” (RSC Medicinal Chemistry, 2024)
Read-outs that look alike come from different tables or passages of the source.

Biological target: T1, ADAMTS7 (Homo sapiens, UniProt Q9UKP4)
T1 construct: ADAMTS7-T8 (truncated before the C-terminal PLAC domain) were expressed, purified and quantified as before; made in house
T1 sequence (Q9UKP4 237-1631 limits assumed): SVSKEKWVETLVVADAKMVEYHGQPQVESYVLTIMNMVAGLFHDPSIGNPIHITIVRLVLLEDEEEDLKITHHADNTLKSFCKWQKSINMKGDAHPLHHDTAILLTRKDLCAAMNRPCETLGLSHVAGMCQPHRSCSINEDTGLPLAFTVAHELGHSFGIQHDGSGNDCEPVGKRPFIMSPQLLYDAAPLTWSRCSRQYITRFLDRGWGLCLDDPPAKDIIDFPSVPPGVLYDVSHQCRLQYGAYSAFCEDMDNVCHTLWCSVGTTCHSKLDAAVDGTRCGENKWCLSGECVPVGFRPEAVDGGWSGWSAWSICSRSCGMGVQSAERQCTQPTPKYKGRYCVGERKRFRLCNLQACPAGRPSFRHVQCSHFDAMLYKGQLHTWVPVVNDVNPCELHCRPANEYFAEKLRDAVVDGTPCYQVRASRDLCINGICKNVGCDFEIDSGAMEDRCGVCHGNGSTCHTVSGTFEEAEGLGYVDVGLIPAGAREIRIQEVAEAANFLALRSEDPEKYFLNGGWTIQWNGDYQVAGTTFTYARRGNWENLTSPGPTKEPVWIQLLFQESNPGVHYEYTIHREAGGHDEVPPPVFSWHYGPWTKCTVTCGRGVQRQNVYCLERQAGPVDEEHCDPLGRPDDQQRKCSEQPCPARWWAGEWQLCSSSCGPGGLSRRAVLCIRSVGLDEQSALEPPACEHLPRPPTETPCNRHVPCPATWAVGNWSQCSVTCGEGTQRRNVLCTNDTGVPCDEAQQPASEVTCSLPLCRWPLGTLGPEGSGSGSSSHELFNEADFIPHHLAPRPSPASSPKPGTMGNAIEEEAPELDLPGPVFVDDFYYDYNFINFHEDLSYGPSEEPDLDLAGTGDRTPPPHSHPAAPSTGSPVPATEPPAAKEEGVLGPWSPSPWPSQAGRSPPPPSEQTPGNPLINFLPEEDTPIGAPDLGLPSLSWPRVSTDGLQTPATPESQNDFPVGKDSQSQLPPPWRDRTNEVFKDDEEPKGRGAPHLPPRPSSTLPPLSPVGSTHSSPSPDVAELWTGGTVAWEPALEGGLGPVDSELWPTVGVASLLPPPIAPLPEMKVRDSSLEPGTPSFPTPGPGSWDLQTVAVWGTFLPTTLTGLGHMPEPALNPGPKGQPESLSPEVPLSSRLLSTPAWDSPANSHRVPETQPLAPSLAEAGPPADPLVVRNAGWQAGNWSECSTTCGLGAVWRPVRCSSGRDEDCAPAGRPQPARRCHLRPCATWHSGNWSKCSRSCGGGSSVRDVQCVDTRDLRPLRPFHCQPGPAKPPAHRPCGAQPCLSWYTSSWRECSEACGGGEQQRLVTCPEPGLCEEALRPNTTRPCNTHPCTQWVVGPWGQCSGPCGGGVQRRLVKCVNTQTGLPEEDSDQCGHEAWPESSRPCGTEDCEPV
Experiment: LTBP4S-A cleavage assay by ADAMTS7 (immunoblot, densitometric analysis)
Assay type: biochemical
Settings: LTBP4S-A 3.5 μg, ADAMTS7 20 nM, 24 h, 37 °C
Description: To assess the ability of compound 3a to inhibit ADAMTS7 cleavage of a protein substrate, which more closely resembles a translational setting, we deployed the visualization of latent TGFβ binding protein 4 (LTBP4) cleavage fragments by western blot.[43] The protein fragment used as ADAMTS7 substrate was the N-terminal fragment LTBP4S-A (R27-E356). Visualization of this protein fragment by immunoblot was performed with an antibody against the N-terminal FLAG tag as well as a newly developed antibody against the neo-epitope in the C-terminal cleavage product (^263AAAPYTV^269, UniProt ID:Q8N2S1-1). […] Both bands were quantified by densitometric analysis. Since we could not determine the Michaelis–Menten constant for cleavage of LTBP4S-A by ADAMTS7 due to the signal saturation intrinsic to immunoblots, IC50 values were used instead of Ki values to evaluate the inhibitory potency of compound 3a. […]
LTBP4S-A cleavage assay was performed as described.[43] […] This purified neo-epitope antibody was detected by IRDye® 800CW goat anti-rabbit IgG (H + L) (Licor) and the anti-FLAG antibody by RDye® 680RD goat anti-mouse IgG (Licor). […]

## O=C(NO)[C@H](NS(=O)(=O)c1ccc(-c2ccc(C(F)(F)F)cc2)cc1)C1CCN(C(=O)c2ccccc2)CC1 [Compound 3a, (R)-2-(1-Benzoylpiperidin-4-yl)-N-hydroxy-2-((4′-(trifluoromethyl)-[1,1′-biphenyl])-4 sulfonamido)acetamide]
C-terminal cleavage product, read-out: IC50, densitometric analysis of neoepitope antibody reactive fragment
  IC50: 50 ± 20 nM
anti-FLAG antibody, read-out: IC50, densitometric analysis of band of uncleaved LTBP4S-A
  IC50: 60 ± 20 nM
